Test results published in US20070254951A1, “HIGH CONCENTRATION DINOTEFURAN FORMULATIONS” (priority 2006, published 2007).
Read-outs that look alike come from different tables or passages of the source.

Tests used:
[1] = Source text: It is also desirable that the resulting formulation be stable. […] This is important because these conditions can be met in commerce. The crystallization would reduce the amount of insecticide in solution and reduce the efficacy of the solution applied to the animal.
[2] = formulation of Example 9
Source text: The formulation of Example 9 was stored under variable temperatures up to 2 years to determine the stability of dinotefuran in solution.

SMILES: CNC(=N[N+](=O)[O-])NCC1CCOC1 (stereo not drawn) [Dinotefuran, 1-{(tetrahydro-3-furanyl)methyl}-2-nitro-3-methylguanidine]
- increase in concentration by including methoprene ([1]; methoprene at about 0.8% and below, compared to a similar formulation without methoprene): ~50%
- increase in concentration achievable by including pyriproxyfen at low levels ([1]; phenyl methanol formulation, no crystal formation at 0° F. during a 1 month period): ~50%
- dinotefuran concentration that will crystallize at 0° F. within a few days ([1]; typically, 0° F.): over 8%
- Dinotefuran concentration in solution (average) ([2]; 40° F., 1 Mo): 15.03 percent by weight
- Dinotefuran concentration in solution (average) ([2]; 110° F., 3 Mo): 15.33 percent by weight
- Dinotefuran concentration in solution (average) ([2]; 130° F., 1 Mo): 15.22 percent by weight
- Dinotefuran concentration in solution (average) ([2]; F/T, 1 Mo): 15.05 percent by weight
- Dinotefuran concentration in solution (average) ([2]; INITIAL): 15.43 percent by weight
- Dinotefuran concentration in solution (average) ([2]; RT (25° C.), 3 Mo): 15.17 percent by weight
- Dinotefuran concentration in solution (average) ([2]; RT, 1 Yr): 15.24 percent by weight
- Dinotefuran concentration in solution (average) ([2]; RT, 2 Yrs): 15.735 percent by weight
- Dinotefuran concentration in solution (average) ([2]; RT, 6 Mo): 15.06 percent by weight
